Laboratory results: ChEMBL document CHEMBL5674866 (J Biol Chem, 2015)

Tests used:
[1] = Inhibition of human ABL1 pM351T mutant by discoverX kinome scan assay
KYSE-150 cell line = assay: Effect on cellular post-translational modifications on histone […] (GKGGKGLGKGGAKR) - K5 acetylated , K8 unmethylated , K12 acetylated, K16 unmethylated in human KYSE-150 cells assessed as relative abundance at 5 by mass spectrometric analysis (reference value: 3+/-1.7); assay type: functional; settings: dose 5 µM
Myosin-IIIa = Myosin-IIIa (Homo sapiens, UniProt Q8NEV4); assay: Inhibition of human MYO3A by discoverX kinome scan assay
Myosin-IIIa, sequence (Q8NEV4 whole entry): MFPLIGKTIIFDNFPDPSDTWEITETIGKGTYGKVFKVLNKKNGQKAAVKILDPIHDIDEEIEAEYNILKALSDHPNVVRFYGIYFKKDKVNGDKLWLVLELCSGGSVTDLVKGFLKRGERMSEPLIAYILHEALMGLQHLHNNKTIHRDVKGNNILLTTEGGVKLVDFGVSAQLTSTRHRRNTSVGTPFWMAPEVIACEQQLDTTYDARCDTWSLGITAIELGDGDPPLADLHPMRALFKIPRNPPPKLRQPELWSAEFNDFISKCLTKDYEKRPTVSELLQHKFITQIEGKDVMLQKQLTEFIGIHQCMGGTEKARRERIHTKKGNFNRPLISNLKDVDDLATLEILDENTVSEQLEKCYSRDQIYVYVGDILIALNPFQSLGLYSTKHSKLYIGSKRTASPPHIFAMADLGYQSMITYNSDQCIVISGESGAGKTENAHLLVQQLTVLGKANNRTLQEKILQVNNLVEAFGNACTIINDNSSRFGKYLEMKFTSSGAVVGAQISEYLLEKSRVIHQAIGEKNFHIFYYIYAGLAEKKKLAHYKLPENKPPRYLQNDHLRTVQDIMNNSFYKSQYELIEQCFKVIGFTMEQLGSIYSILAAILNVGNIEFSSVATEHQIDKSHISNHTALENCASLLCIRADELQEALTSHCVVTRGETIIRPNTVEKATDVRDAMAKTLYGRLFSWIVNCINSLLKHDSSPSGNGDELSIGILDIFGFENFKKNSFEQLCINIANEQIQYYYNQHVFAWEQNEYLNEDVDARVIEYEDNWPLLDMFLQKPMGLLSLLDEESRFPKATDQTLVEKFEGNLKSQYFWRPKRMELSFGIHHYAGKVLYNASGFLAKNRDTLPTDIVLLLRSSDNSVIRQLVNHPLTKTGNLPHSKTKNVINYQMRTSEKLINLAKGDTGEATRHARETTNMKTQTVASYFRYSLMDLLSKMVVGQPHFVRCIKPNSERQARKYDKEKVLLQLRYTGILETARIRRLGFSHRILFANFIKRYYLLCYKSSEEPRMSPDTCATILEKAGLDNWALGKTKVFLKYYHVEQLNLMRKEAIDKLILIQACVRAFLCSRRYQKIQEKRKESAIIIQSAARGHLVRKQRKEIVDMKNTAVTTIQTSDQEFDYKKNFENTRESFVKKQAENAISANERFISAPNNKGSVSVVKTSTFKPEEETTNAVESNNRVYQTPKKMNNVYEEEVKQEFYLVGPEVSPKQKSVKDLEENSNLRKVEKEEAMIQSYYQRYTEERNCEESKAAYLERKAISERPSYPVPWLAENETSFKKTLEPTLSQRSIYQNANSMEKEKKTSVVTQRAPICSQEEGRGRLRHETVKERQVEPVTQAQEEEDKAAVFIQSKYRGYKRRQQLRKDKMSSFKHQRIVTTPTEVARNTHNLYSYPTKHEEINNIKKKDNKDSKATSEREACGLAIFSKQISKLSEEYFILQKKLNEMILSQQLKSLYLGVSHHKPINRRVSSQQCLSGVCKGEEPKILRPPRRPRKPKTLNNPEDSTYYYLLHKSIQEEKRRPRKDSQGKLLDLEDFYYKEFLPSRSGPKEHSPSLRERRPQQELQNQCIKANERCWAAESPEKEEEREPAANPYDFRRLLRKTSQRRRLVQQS

[2] = Inhibition of human ABL1 pH396P mutant by discoverX kinome scan assay
[3] = target: T1, Serine/threonine-protein kinase Nek2 (Homo sapiens, UniProt P51955); assay: Inhibition of human NEK2 by discoverX kinome scan assay
T1 sequence (P51955 whole entry): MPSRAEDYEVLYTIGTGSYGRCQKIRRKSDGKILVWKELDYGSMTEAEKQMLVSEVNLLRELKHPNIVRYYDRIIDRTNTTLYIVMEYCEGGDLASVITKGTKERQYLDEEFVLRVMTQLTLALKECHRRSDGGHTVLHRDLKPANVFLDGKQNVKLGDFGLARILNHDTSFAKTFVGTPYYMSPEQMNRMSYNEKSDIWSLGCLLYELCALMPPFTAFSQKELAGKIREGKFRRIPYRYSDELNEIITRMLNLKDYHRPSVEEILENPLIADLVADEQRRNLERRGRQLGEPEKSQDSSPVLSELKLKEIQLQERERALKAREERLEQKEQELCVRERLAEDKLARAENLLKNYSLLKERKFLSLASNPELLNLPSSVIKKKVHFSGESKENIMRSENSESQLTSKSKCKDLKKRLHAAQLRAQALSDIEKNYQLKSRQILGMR

[4] = Inhibition of human ABL1 pT315I mutant by discoverX kinome scan assay
[5] = target: Serine/threonine-protein kinase MRCK beta (Homo sapiens, UniProt Q9Y5S2); assay: Inhibition of human MRCKB by discoverX kinome scan assay
Serine/threonine-protein kinase MRCK beta, sequence (Q9Y5S2 whole entry): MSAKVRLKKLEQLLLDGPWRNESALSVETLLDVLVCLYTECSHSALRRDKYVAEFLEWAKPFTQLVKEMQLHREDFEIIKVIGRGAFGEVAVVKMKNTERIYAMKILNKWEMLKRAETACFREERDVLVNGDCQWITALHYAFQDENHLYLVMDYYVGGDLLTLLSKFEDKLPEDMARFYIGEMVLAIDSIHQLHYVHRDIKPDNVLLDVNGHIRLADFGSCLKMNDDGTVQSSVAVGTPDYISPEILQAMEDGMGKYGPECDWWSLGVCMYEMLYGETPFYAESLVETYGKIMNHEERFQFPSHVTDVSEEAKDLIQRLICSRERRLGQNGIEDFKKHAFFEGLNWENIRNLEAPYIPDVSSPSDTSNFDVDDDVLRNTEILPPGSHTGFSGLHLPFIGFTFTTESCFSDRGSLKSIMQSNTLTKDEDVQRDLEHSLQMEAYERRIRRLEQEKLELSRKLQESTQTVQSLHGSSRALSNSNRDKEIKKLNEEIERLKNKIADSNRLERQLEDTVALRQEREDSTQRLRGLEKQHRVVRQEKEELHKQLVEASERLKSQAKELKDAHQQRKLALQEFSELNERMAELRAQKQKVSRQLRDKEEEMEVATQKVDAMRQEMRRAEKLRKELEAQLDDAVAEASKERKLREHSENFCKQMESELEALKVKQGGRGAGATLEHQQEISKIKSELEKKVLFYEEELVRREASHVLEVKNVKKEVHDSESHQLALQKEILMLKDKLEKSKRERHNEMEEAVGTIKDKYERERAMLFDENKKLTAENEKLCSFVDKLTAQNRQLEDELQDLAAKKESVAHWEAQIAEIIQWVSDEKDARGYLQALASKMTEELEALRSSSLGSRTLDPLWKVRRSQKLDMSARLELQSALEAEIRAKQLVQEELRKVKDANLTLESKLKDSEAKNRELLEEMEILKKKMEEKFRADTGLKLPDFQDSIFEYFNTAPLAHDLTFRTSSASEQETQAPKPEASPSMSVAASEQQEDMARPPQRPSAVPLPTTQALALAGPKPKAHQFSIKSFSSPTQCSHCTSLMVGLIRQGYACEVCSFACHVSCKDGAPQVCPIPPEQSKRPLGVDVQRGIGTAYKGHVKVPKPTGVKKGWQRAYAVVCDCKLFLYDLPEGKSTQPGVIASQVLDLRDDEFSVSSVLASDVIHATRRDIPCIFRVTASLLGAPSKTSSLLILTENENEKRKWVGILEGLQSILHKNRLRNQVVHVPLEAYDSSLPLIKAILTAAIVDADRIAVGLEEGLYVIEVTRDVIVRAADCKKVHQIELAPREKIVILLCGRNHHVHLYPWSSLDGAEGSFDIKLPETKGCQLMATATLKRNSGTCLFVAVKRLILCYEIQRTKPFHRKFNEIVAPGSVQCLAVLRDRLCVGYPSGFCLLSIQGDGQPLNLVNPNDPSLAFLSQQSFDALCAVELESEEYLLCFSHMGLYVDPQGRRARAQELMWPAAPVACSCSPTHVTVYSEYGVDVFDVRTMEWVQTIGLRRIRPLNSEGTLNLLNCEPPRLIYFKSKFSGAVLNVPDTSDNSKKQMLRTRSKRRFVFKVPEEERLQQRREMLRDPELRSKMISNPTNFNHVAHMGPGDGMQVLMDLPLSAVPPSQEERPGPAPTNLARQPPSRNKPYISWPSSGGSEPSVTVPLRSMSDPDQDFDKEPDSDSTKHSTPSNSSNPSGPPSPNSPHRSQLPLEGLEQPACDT

[6] = target: T2, Mitogen-activated protein kinase 13 (Homo sapiens, UniProt O15264); assay: Inhibition of human p38-delta by discoverX kinome scan assay
T2 sequence (O15264 whole entry): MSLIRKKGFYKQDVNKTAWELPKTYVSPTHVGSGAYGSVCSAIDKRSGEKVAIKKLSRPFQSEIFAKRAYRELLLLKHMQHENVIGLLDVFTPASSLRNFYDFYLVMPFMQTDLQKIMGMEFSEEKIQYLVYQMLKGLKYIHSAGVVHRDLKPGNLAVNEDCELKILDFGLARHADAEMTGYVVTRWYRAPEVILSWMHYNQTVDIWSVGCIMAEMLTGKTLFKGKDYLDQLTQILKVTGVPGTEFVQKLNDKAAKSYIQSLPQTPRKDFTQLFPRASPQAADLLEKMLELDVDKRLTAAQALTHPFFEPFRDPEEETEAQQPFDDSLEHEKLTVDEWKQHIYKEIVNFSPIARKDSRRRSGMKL

[7] = target: Phosphatidylinositol 4,5-bisphosphate 3-kinase catalytic subunit beta isoform (Homo sapiens, UniProt P42338); assay: Inhibition of human PIK3CB by discoverX kinome scan assay
Phosphatidylinositol 4,5-bisphosphate 3-kinase catalytic subunit beta isoform, sequence (P42338 whole entry, canonical isoform): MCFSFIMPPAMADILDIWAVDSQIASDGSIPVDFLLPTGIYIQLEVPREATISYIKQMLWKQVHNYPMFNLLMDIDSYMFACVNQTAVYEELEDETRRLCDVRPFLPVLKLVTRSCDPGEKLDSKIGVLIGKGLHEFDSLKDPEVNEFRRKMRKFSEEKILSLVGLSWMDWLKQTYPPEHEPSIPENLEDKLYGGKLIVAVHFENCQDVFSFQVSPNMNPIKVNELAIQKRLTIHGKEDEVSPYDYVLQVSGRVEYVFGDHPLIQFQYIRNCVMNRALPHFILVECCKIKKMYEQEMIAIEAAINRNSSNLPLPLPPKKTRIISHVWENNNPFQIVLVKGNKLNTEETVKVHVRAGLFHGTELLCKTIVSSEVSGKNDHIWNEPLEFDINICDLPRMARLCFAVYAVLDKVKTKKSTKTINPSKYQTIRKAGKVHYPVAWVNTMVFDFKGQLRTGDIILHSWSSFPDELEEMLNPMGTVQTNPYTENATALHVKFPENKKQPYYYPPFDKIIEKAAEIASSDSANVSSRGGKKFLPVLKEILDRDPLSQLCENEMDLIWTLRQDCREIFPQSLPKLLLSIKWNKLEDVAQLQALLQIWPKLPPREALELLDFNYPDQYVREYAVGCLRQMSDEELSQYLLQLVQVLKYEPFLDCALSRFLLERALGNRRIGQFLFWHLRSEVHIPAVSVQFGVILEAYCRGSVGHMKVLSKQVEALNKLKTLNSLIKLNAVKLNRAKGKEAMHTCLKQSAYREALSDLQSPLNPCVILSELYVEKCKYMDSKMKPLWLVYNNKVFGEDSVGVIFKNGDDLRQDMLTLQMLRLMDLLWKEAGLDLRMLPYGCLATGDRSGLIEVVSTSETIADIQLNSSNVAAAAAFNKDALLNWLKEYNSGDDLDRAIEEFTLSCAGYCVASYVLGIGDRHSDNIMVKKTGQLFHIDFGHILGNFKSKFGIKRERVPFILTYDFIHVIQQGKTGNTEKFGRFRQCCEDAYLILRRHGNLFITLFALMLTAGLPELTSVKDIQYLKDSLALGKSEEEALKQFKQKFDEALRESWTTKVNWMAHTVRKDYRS

[8] = target: Protein kinase C eta type (Homo sapiens, UniProt P24723); assay: Inhibition of human PRKCH by discoverX kinome scan assay
Protein kinase C eta type, sequence (P24723 whole entry): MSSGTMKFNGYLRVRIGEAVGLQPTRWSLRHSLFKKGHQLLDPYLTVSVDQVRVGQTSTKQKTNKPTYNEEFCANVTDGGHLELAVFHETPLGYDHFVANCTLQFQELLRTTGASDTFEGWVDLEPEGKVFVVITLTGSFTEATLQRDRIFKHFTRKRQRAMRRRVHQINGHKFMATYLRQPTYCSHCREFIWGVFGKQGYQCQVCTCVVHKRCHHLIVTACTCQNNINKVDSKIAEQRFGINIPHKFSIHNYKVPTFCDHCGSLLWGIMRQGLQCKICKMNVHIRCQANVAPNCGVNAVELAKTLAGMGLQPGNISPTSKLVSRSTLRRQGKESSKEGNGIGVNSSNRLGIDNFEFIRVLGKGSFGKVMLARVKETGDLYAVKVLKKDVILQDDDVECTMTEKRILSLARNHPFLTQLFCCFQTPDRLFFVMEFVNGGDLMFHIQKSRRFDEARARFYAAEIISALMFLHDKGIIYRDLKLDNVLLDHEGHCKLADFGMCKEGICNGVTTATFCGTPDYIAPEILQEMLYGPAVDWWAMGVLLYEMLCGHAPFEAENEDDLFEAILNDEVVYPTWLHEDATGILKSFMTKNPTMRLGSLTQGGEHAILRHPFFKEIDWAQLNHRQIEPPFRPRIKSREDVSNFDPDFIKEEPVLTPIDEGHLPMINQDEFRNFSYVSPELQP

Cc1cn(CCN2CCN(c3ccccc3-c3cc(C#N)cc(C(=O)NCCCN4CCCC4)c3)CC2)c2ccccc12
> 20 µM: IC50 [1] | IC50 (Myosin-IIIa) | IC50 [2] | IC50 [3] | IC50 [4] | IC50 [5] | IC50 [6] | IC50 [7] | IC50 [8]
1.6: Activity (KYSE-150 cell line)
